Data as given in patent publication US20240082223A1, “DIHYDROFUROPYRIDINE DERIVATIVES AS RHO- KINASE INHIBITORS” (CHIESI FARMACEUTICI S.P.A., priority 2020, published 2024).

Tests used:
Type in all cases: biochemical
[1] = target: T1, ROCK2 (Homo sapiens, UniProt O75116); assay: In vitro inhibitory activity assay ROCK2 (Method A, ADP-Glo, 10 μM ATP); conditions: ATP 10 μM, read-out: Method A ROCK 2 (Ki)
Outline: (§1)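 Kinase reaction at 25 °C with 2.5 μM myelin basic protein, 10 μM ATP, 40 mM Tris pH 7.5, 20 mM MgCl2, 1% DMSO; enzyme and compound preincubated 30 min, reaction run 1 h, ADP measured by ADP-Glo luminescence. IC50 from variable-slope sigmoidal fit (0–100% fixed); Ki via Cheng-Prusoff.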

[2] = target: T1, ROCK2; assay: In vitro inhibitory activity assay ROCK2 (Method B, ADP-Glo, 200 μM ATP); conditions: ATP 200 μM, read-out: Method B ROCK 2 (Ki)
Protocol: (§2) In Vitro Inhibitory Activity Assay Description ROCK1 and ROCK2
(§3) The effectiveness of compounds of the present invention to inhibit Rho kinase activity can be determined in a 10 μl assay containing 40 mM Tris pH7.5, 20 mM MgCl2 0.1 mg/mL BSA, 50 μM DTT and 2.5 μM peptide substrate (Myelin Basic Protein) using an ADP-Glo kit (Promega). Compounds were dissolved in DMSO such that the final concentration of DMSO was 1% in the assay. All reactions/incubations are performed at 25° C. Compound (2 μL) and either Rho kinase 1 or 2 (4 μl) were mixed and incubated for 30 min. Reactions were initiated by addition of ATP (4 μL) such that the final concentration of ATP in the assay was 200 μM. After a 1 hour incubation […] of ADP-Glo Reagent was added and after a further 45 minute incubation 20 μL of Kinase Detection Buffer was added and the mixture incubated for a further 30 minutes. The luminescent signal was measured on a luminometer. […] Compounds were tested in dose-response format and the inhibition of kinase activity was calculated at each concentration of compound. To determine the IC50 (concentration of compound required to inhibit 50% of the enzyme activity) data were fit to a plot of % inhibition vs Log10 compound concentration using a sigmoidal fit with a variable slope and fixing the maximum to 100% and the minimum to 0%. To determine the Ki values the Cheng-Prusoff equation was utilized ([…].

[3] = target: T2, ROCK1 (Homo sapiens, UniProt Q13464); assay: In vitro inhibitory activity assay ROCK1 (Method A, ADP-Glo, 10 μM ATP); conditions: ATP 10 μM, read-out: Method A ROCK 1 (Ki)
T2 sequence (Q13464 whole entry): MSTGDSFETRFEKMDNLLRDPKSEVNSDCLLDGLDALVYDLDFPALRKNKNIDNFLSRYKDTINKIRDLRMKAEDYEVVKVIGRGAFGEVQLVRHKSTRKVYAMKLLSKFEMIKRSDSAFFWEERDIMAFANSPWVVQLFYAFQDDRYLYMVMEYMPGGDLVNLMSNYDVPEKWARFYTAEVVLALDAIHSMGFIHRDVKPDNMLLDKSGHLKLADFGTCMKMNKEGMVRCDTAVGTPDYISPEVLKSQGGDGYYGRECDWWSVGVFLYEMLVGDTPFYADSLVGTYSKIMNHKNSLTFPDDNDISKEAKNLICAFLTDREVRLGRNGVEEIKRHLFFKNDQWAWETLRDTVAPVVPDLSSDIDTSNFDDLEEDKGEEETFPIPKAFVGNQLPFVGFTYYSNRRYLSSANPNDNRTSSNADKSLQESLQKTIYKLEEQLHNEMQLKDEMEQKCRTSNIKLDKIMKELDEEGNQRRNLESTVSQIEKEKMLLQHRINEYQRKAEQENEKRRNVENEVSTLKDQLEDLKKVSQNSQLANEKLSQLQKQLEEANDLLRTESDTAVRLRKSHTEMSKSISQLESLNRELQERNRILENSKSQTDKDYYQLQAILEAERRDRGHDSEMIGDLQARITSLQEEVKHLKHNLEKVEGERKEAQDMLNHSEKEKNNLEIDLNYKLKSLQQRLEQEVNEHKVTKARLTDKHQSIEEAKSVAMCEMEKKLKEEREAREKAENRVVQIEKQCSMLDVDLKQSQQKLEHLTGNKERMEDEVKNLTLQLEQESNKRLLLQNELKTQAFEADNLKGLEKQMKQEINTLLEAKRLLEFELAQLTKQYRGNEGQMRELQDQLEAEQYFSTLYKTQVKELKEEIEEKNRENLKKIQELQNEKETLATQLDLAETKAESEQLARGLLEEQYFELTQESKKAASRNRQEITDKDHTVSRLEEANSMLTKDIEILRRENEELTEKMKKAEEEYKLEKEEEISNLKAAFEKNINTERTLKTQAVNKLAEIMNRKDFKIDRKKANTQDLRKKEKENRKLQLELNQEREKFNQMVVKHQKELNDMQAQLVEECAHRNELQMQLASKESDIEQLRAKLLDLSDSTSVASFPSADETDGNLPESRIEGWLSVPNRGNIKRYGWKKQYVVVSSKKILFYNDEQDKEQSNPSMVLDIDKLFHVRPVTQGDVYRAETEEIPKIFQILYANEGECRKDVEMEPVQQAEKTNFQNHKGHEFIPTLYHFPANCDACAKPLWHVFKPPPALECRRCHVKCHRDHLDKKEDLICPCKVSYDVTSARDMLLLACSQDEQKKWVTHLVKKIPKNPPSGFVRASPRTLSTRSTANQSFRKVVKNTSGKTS
Outline: as §1

[4] = target: PKA (Homo sapiens, UniProt P17612); assay: In vitro inhibitory activity assay for PKA (ADP-Glo), reported as selectivity ratio vs ROCK2; conditions: Ki PKA divided by Ki ROCK2 (method B)
Protocol: In vitro inhibitory activity assay description for PKA
The effectiveness of compounds of the present invention to inhibit PKA activity can be determined in a […], assay containing 40 mM Tris pH7.5, 20 mM MgCl2 0.1 mg/mL BSA, 50 μM DTT and 260 μM peptide substrate (kemptide) using an ADP-Glo kit (Promega). Compounds were dissolved in DMSO such that the final concentration of DMSO was 1% in the assay. All reactions/incubations are performed at 25° C. Compound and PKA enzyme (6 μl) were mixed and incubated for 30 min. Reactions were initiated by addition of ATP (4 μL) such that the final concentration of ATP in the assay was 10 μM. After a 30 minute incubation 10 μL of ADP-Glo Reagent was added and after a further 1 hour incubation 20 μL of Kinase Detection Buffer was added and the mixture incubated for a further 45 minutes. The luminescent signal was measured on a luminometer. […] Compounds were tested in dose-response format and the inhibition of kinase activity was calculated at each concentration of compound. To determine the IC50 (concentration of compound required to inhibit 50% of the enzyme activity) data were fit to a plot of % inhibition vs Log10 compound concentration using a sigmoidal fit with a variable slope and fixing the maximum to 100% and the minimum to 0%. To determine the Ki values the Cheng-Prusoff equation was utilized (Ki=IC50/(1+[S]/Km).
In vitro inhibitory activities for PKA were reported as selectivity ratio vs. ROCK2. Selectivity ratio PKA/ROCK2 was calculated by dividing the Ki value for PKA by Ki value of ROCK2 (method B) and reported into table 1.

[5] = target: T2, ROCK1; assay: In vitro inhibitory activity assay ROCK1 (Method B, ADP-Glo, 200 μM ATP); conditions: ATP 200 μM, read-out: Method B ROCK 1 (Ki)
Protocol: as §2, §3

T1 sequence (O75116 whole entry): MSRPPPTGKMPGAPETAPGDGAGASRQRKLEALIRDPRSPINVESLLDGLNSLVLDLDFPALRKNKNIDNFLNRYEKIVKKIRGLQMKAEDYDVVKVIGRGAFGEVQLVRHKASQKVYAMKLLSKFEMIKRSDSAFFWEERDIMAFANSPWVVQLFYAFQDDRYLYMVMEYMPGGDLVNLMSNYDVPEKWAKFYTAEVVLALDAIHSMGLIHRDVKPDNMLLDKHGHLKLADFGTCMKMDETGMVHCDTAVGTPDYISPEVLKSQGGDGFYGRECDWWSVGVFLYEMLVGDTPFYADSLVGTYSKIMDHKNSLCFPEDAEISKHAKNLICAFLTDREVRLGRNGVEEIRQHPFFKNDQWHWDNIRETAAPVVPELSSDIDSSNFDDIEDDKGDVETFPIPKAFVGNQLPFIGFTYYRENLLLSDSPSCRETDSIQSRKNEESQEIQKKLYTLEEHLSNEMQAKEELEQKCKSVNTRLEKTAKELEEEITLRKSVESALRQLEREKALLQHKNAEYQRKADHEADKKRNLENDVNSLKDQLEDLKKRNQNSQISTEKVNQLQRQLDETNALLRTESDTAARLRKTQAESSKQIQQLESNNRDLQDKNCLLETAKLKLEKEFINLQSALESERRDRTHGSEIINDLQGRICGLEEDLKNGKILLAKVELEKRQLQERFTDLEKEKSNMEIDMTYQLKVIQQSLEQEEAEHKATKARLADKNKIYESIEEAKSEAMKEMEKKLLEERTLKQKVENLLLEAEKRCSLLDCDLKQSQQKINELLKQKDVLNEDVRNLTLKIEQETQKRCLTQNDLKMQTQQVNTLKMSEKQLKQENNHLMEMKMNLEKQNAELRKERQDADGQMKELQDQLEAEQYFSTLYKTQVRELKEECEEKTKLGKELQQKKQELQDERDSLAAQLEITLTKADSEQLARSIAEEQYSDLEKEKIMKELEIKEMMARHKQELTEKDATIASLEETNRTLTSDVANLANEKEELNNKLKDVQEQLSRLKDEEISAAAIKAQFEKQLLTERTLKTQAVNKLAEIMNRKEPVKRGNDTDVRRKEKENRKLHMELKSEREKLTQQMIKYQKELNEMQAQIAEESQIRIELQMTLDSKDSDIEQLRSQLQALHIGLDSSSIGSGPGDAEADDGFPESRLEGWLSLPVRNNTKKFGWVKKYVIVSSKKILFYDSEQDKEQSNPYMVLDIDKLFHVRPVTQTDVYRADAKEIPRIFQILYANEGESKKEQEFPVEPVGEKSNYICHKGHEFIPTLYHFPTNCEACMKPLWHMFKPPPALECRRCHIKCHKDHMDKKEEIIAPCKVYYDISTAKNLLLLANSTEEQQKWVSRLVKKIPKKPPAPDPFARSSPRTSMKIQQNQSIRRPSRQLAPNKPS

Row | Ki [1] [nM] | Ki [2] [nM] | Ki [3] [nM] | Ratio Ki PKA/ROCK2 [4] | Ki [5] [nM] | Compound
1 | ≤ 3 | ≤ 3 | ≤ 3 | *** (ratio≥10) | ≤ 3 | CN1CCn2nc(NC(=O)c3cccc(CNc4ncc(-c5cn[nH]c5)c5c4CCO5)c3)cc2C1 [Example 15, 3-(((7-(1H-pyrazol-4-yl)-2,3-dihydrofuro[3,2-c]pyridin-4-yl)amino)methyl)-N-(5-methyl-4,5,6,7-tetrahydropyrazolo[1,5-a]pyrazin-2-yl)benzamide]
2 | ≤ 3 | ≤ 3 | ≤ 3 | *** (ratio≥10) | ≤ 3 | O=C(Nc1nc2c(s1)CC(NC1COC1)CC2)c1cccc(CNc2ncc(-c3cn[nH]c3)c3c2CCO3)c1 (centres unmarked) [Example 34, 3-(((7-(1H-pyrazol-4-yl)-2,3-dihydrofuro[3,2-c]pyridin-4-yl)amino)methyl)-N-(6-(oxetan-3-ylamino)-4,5,6,7-tetrahydrobenzo[d]thiazol-2-yl)benzamide]
3 | ≤ 3 | ≤ 3 | ≤ 3 | *** (ratio≥10) | ≤ 3 | CN(C)C1CCc2nc(NC(=O)c3cccc(CNc4ncc(-c5cn[nH]c5)c5c4CCO5)c3)sc2C1 (centres unmarked) [Example 33, 3-(((7-(1H-Pyrazol-4-yl)-2,3-dihydrofuro[3,2-c]pyridin-4-yl)amino)methyl)-N-(6-(dimethylamino)-4,5,6,7-tetrahydrobenzo[d]thiazol-2-yl)benzamide]
4 | ≤ 3 | ≤ 3 | ≤ 3 | *** (ratio≥10) | ≤ 3 | CN1CCC(CCNC(=O)c2cccc(CNc3ncc(-c4cn[nH]c4)c4c3CCO4)c2)CC1 [Example 16, 3-(((7-(1H-pyrazol-4-yl)-2,3-dihydrofuro[3,2-c]pyridin-4-yl)amino)methyl)-N-(2-(1-methylpiperidin-4-yl)ethyl)benzamide]
